Laboratory results taken from PubChem BioAssay (NCI).
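Each compound was tested at five concentrations against cells in 96-well plates for 48 hours. At the TGI there is no net growth.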

Tests used:
Assay in all cases: NCI-60 cell line screen, 48 h
IGROV1 ovarian = system: IGROV1 ovarian
HOP-92 NSCLC = system: HOP-92 NSCLC
HCT-15 colon = system: HCT-15 colon
SNB-19 CNS = system: SNB-19 CNS
NCI-H460 lung = system: NCI-H460 lung
CCRF-CEM leukemia = system: CCRF-CEM leukemia
COLO 205 colon = system: COLO 205 colon
A549 NSCLC = system: A549 NSCLC
SN12C renal = system: SN12C renal
SR leukemia = system: SR leukemia
LOX IMVI melanoma = system: LOX IMVI melanoma
MALME-3M melanoma = system: MALME-3M melanoma
SK-OV-3 ovarian = system: SK-OV-3 ovarian
SW-620 colon = system: SW-620 colon
T-47D breast = system: T-47D breast
UO-31 renal = system: UO-31 renal
MOLT-4 leukemia = system: MOLT-4 leukemia
OVCAR-4 ovarian = system: OVCAR-4 ovarian
SK-MEL-28 melanoma = system: SK-MEL-28 melanoma
MDA-MB-231 breast = system: MDA-MB-231 breast
PC-3 prostate = system: PC-3 prostate
A498 renal = system: A498 renal
SK-MEL-2 melanoma = system: SK-MEL-2 melanoma
HT29 colon = system: HT29 colon
RXF 393 renal = system: RXF 393 renal
SNB-75 CNS = system: SNB-75 CNS
MCF7 breast = system: MCF7 breast
MDA-N = system: MDA-N
RPMI-8226 leukemia = system: RPMI-8226 leukemia
M14 melanoma = system: M14 melanoma
OVCAR-3 ovarian = system: OVCAR-3 ovarian
TK-10 renal = system: TK-10 renal
OVCAR-5 ovarian = system: OVCAR-5 ovarian
SF-268 CNS = system: SF-268 CNS
BT-549 breast = system: BT-549 breast
K-562 leukemia = system: K-562 leukemia
ACHN renal = system: ACHN renal
NCI/ADR-RES ovarian = system: NCI/ADR-RES ovarian
HCT-116 colon = system: HCT-116 colon
HL-60(TB) leukemia = system: HL-60(TB) leukemia
NCI-H226 lung = system: NCI-H226 lung
SK-MEL-5 melanoma = system: SK-MEL-5 melanoma
U251 CNS = system: U251 CNS
HOP-62 NSCLC = system: HOP-62 NSCLC
OVCAR-8 ovarian = system: OVCAR-8 ovarian
MDA-MB-435 = system: MDA-MB-435
SF-295 CNS = system: SF-295 CNS
NCI-H23 lung = system: NCI-H23 lung
KM12 colon = system: KM12 colon
UACC-257 melanoma = system: UACC-257 melanoma
CAKI-1 renal = system: CAKI-1 renal
UACC-62 melanoma = system: UACC-62 melanoma
NCI-H522 lung = system: NCI-H522 lung
786-0 renal = system: 786-0 renal
HS 578T breast = system: HS 578T breast
EKVX NSCLC = system: EKVX NSCLC
DU-145 prostate = system: DU-145 prostate
SF-539 CNS = system: SF-539 CNS
HCC-2998 colon = system: HCC-2998 colon

## O=C(Nn1cc(F)c(=O)[nH]c1=O)C12CC3CC(CC(C3)C1)C2
IGROV1 ovarian
  TGI: 27.5 µM
HOP-92 NSCLC
  TGI: 42.6 µM
HCT-15 colon
  TGI: 25.6 µM
SNB-19 CNS
  TGI: > 100 µM
NCI-H460 lung
  TGI: 19.7 µM
CCRF-CEM leukemia
  TGI: 45 µM
COLO 205 colon
  TGI: 23.5 µM
A549 NSCLC
  TGI: > 100 µM
SN12C renal
  TGI: > 100 µM
SR leukemia
  TGI: 26.8 µM
LOX IMVI melanoma
  TGI: 27.8 µM
MALME-3M melanoma
  TGI: 32.2 µM
SK-OV-3 ovarian
  TGI: 77.5 µM
SW-620 colon
  TGI: > 96.4 µM
T-47D breast
  TGI: > 80.2 µM
UO-31 renal
  TGI: 54.4 µM
MOLT-4 leukemia
  TGI: 47.9 µM
OVCAR-4 ovarian
  TGI: > 66.2 µM
SK-MEL-28 melanoma
  TGI: > 86.6 µM
MDA-MB-231 breast
  TGI: 37 µM
PC-3 prostate
  TGI: 45.5 µM
A498 renal
  TGI: > 81.2 µM
SK-MEL-2 melanoma
  TGI: 63.3 µM
HT29 colon
  TGI: 37.1 µM
RXF 393 renal
  TGI: 57.8 µM
SNB-75 CNS
  TGI: 80.1 µM
MCF7 breast
  TGI: > 100 µM
MDA-N
  TGI: > 57 µM
RPMI-8226 leukemia
  TGI: 42.5 µM
M14 melanoma
  TGI: > 72.6 µM
OVCAR-3 ovarian
  TGI: 35.1 µM
TK-10 renal
  TGI: > 86.8 µM
OVCAR-5 ovarian
  TGI: > 95.1 µM
SF-268 CNS
  TGI: 98.2 µM
BT-549 breast
  TGI: 79.3 µM
K-562 leukemia
  TGI: > 75.9 µM
ACHN renal
  TGI: 63.8 µM
NCI/ADR-RES ovarian
  TGI: > 100 µM
HCT-116 colon
  TGI: 24.9 µM
HL-60(TB) leukemia
  TGI: 54.3 µM
NCI-H226 lung
  TGI: > 100 µM
SK-MEL-5 melanoma
  TGI: 12.2 µM
U251 CNS
  TGI: > 72 µM
HOP-62 NSCLC
  TGI: 51.8 µM
OVCAR-8 ovarian
  TGI: > 100 µM
MDA-MB-435
  TGI: > 56 µM
SF-295 CNS
  TGI: > 100 µM
NCI-H23 lung
  TGI: 53 µM
KM12 colon
  TGI: 49.1 µM
UACC-257 melanoma
  TGI: > 100 µM
CAKI-1 renal
  TGI: 32.7 µM
UACC-62 melanoma
  TGI: 24.4 µM
NCI-H522 lung
  TGI: 44.5 µM
786-0 renal
  TGI: > 100 µM
HS 578T breast
  TGI: > 81.2 µM
EKVX NSCLC
  TGI: > 89.1 µM
DU-145 prostate
  TGI: > 100 µM
SF-539 CNS
  TGI: 16.3 µM
HCC-2998 colon
  TGI: 18.4 µM

## CC(C)Oc1c(N(Cc2ccccc2)c2ccccc2C2SCCCS2)c(=O)c1=O
IGROV1 ovarian
  TGI: > 32.8 µM
HOP-92 NSCLC
  TGI: > 83.3 µM
HCT-15 colon
  TGI: > 56.5 µM
SNB-19 CNS
  TGI: > 100 µM
NCI-H460 lung
  TGI: > 60.8 µM
CCRF-CEM leukemia
  TGI: > 100 µM
COLO 205 colon
  TGI: 21.5 µM
A549 NSCLC
  TGI: > 100 µM
SN12C renal
  TGI: > 100 µM
SR leukemia
  TGI: > 100 µM
LOX IMVI melanoma
  TGI: > 100 µM
MALME-3M melanoma
  TGI: > 100 µM
SK-OV-3 ovarian
  TGI: > 73.4 µM
SW-620 colon
  TGI: 8.2 µM
T-47D breast
  TGI: > 100 µM
UO-31 renal
  TGI: > 100 µM
MOLT-4 leukemia
  TGI: > 100 µM
OVCAR-4 ovarian
  TGI: > 100 µM
SK-MEL-28 melanoma
  TGI: > 100 µM
MDA-MB-231 breast
  TGI: > 56 µM
PC-3 prostate
  TGI: 35.7 µM
A498 renal
  TGI: > 85.1 µM
SK-MEL-2 melanoma
  TGI: 20.1 µM
HT29 colon
  TGI: 6.78 µM
RXF 393 renal
  TGI: > 100 µM
SNB-75 CNS
  TGI: 7.22 µM
MCF7 breast
  TGI: > 100 µM
MDA-N
  TGI: > 30.7 µM
RPMI-8226 leukemia
  TGI: > 100 µM
M14 melanoma
  TGI: 19.3 µM
OVCAR-3 ovarian
  TGI: 7.07 µM
TK-10 renal
  TGI: > 100 µM
OVCAR-5 ovarian
  TGI: > 100 µM
SF-268 CNS
  TGI: > 100 µM
BT-549 breast
  TGI: > 100 µM
K-562 leukemia
  TGI: > 100 µM
ACHN renal
  TGI: > 100 µM
NCI/ADR-RES ovarian
  TGI: 4.7 µM
HCT-116 colon
  TGI: 59.3 µM
HL-60(TB) leukemia
  TGI: > 100 µM
NCI-H226 lung
  TGI: > 28.2 µM
SK-MEL-5 melanoma
  TGI: > 100 µM
U251 CNS
  TGI: > 100 µM
HOP-62 NSCLC
  TGI: > 100 µM
OVCAR-8 ovarian
  TGI: > 60.7 µM
MDA-MB-435
  TGI: 10.3 µM
SF-295 CNS
  TGI: 5.67 µM
NCI-H23 lung
  TGI: > 47.5 µM
KM12 colon
  TGI: 35.9 µM
UACC-257 melanoma
  TGI: > 100 µM
CAKI-1 renal
  TGI: > 100 µM
UACC-62 melanoma
  TGI: > 100 µM
NCI-H522 lung
  TGI: 4.87 µM
786-0 renal
  TGI: > 100 µM
HS 578T breast
  TGI: 32.6 µM
EKVX NSCLC
  TGI: > 100 µM
DU-145 prostate
  TGI: > 100 µM
SF-539 CNS
  TGI: 8 µM
HCC-2998 colon
  TGI: 18.5 µM
